Data published in EP0183129A1, “Quinolonecarboxylic acid derivatives” (KYORIN PHARMACEUTICAL CO., LTD., priority 1984, dated 1986).
In brackets after ≈: the same amount, converted by molar mass. Where a name gives a salt, the structure may show the parent alone. Read-outs that look alike come from different tables or passages of the source.

Legend:
[1] = system: Bacillus subtilis PCI 219; assay: In vitro antibacterial activity, MIC (standard strain); type: cell-based; details: PCI219
[2] = system: Staphylococcus aureus 209 P; assay: as above; type: cell-based
[3] = system: S. aureus IID 670 (Terajima); assay: as above; type: cell-based, Staphylococcus aureus; details: Staphylococcus aureus
[4] = system: S. epidermidis IID 866; assay: as above; type: cell-based; details: Staphylococcus epidermidis
[5] = system: Streptococcus pyogenes S-8; assay: as above; type: cell-based; details: S8; Streptococcus pyogenes S-8; 10^6 cells/ml; standard strain; read-out: MIC
[6] = system: S. pyogenes IID 692; assay: as above; type: cell-based; details: Streptococcus pyogenes, IID692; S. pyogenes IID 692; 10^6 cells/ml; standard strain; read-out: MIC
[7] = system: S. pneumoniae IID 552; assay: as above; type: cell-based; details: Streptococcus pneumoniae, IID552; S. pneumoniae IID 552; 10^6 cells/ml; standard strain; read-out: MIC
[8] = system: E. coli ATCC 10536; assay: as above; type: cell-based; details: Escherichia coli, ATCC10536
[9] = system: E. coli ML 4707; assay: as above; type: cell-based; details: Escherichia coli, ML4707
[10] = system: Proteus vulgaris IFO 3167; assay: as above; type: cell-based; details: IFO3167; Proteus vulgaris IFO 3167; 10^6 cells/ml; standard strain; read-out: MIC
[11] = system: P. mirabilis IID 994; assay: as above; type: cell-based; details: Proteus mirabilis, IID994; P. mirabilis IID 994; 10^6 cells/ml; standard strain; read-out: MIC
[12] = system: Klebsiella pneumoniae KY(GN)6445; assay: as above; type: cell-based; details: Klebsiella pneumoniae KY(GN)6445; 10^6 cells/ml; standard strain; read-out: MIC
[13] = system: Shigella sonnei IID 969; assay: as above; type: cell-based; details: IID969, 10^6 cells/ml
Procedure: Experiment-1 In vitro antibacterial activity
The in vitro antibacterial activity against gram-positive and gram-negative bacteria has been investivated.
The minimum inhibitory concentration (MIC) was determined in accordance with the method recommended by Japan Society of Chemotherapy.

[14] = system: Yersinia enterocolitica IID 981; assay: as above; type: cell-based; details: IID981; Yersinia enterocolitica IID 981; 10^6 cells/ml; standard strain; read-out: MIC
[15] = system: S. marcescens GN 7577; assay: as above; type: cell-based; details: Serratia marcescens, GN7577; S. marcescens GN 7577; 10^6 cells/ml; standard strain; read-out: MIC
[16] = system: Pseudomonas aeruginosa V-1; assay: as above; type: cell-based; details: V1; Pseudomonas aeruginosa V-1; 10^6 cells/ml; standard strain; read-out: MIC
[17] = system: P. aeruginosa IFO 12689; assay: as above; type: cell-based, Pseudomonas aeruginosa; details: Pseudomonas aeruginosa, IFO12689; P. aeruginosa IFO 12689; 10^6 cells/ml; standard strain; read-out: MIC
[18] = system: P. aeruginosa IID 1210; assay: as above; type: cell-based; details: Pseudomonas aeruginosa, IID1210; P. aeruginosa IID 1210; 10^6 cells/ml; standard strain; read-out: MIC
[19] = system: Alcaligenes faecalis 0104002; assay: as above; type: cell-based; details: Alcaligenes faecalis, 0104002, Alcaligenes faecalis 0104002; 10^6 cells/ml; standard strain; read-out: MIC
[20] = system: B. fragilis 25285; assay: as above; type: cell-based, Bacteroides fragilis; details: Bacteroides fragilis, 25285, B. fragilis 25285; 10^6 cells/ml; standard strain; read-out: MIC
[21] = system: Fusobacterium varium KYA 8501; assay: as above; type: cell-based; details: Fusobacterium varium, KYA8501, Fusobacterium varium KYA 8501; 10^6 cells/ml; standard strain; read-out: MIC
[22] = system: Clostridium perfringens KYA 13123; assay: microbe, parasite or virus in culture; type: cell-based; details: KYA13123
[23] = system: C. ramosum; assay: In vitro antibacterial activity, MIC (standard strain); type: cell-based; details: Thomasclavelia ramosa; C. ramosum; 10^6 cells/ml; standard strain; read-out: MIC
[24] = system: S. pneumoniae 15; assay: In vitro antibacterial activity, MIC (clinical isolates); type: cell-based; details: Streptococcus pneumoniae; S. pneumoniae 15; 10^6 cells/ml; clinical isolate; read-out: MIC
[25] = system: S. pneumoniae 2950; assay: as above; type: cell-based; details: Streptococcus pneumoniae; S. pneumoniae 2950; 10^6 cells/ml; clinical isolate; read-out: MIC
[26] = system: S. pyogenes 3102; assay: as above; type: cell-based; details: Streptococcus pyogenes; S. pyogenes 3102; 10^6 cells/ml; clinical isolate; read-out: MIC
[27] = system: S. pyogenes 4372; assay: as above; type: cell-based; details: Streptococcus pyogenes; S. pyogenes 4372; 10^6 cells/ml; clinical isolate; read-out: MIC
[28] = system: S. agalactiae 4049; assay: as above; type: cell-based; details: Streptococcus agalactiae; S. agalactiae 4049; 10^6 cells/ml; clinical isolate; read-out: MIC
[29] = system: S. agalactiae 4368; assay: as above; type: cell-based; details: Streptococcus agalactiae; S. agalactiae 4368; 10^6 cells/ml; clinical isolate; read-out: MIC
[30] = system: S. agalactiae 4468; assay: as above; type: cell-based; details: Streptococcus agalactiae; S. agalactiae 4468; 10^6 cells/ml; clinical isolate; read-out: MIC
[31] = Staphylococcus aureus 209 P, 10^6 cells/ml, standard strain, read-out: MIC
[32] = IID670, S. aureus IID 670 (Terajima), 10^6 cells/ml, standard strain, read-out: MIC
[33] = IID866, S. epidermidis IID 866, 10^6 cells/ml, standard strain, read-out: MIC
[34] = E. coli ATCC 10536, 10^6 cells/ml, standard strain, read-out: MIC
[35] = E. coli ML 4707, 10^6 cells/ml, standard strain, read-out: MIC
[36] = Bacillus subtilis PCI 219, 10^6 cells/ml, standard strain, read-out: MIC

SMILES | MIC [5] [µg/mL] | MIC [6] [µg/mL] | MIC [7] [µg/mL] | MIC [10] [µg/mL] | MIC [11] [µg/mL] | MIC [12] [µg/mL] | MIC [13] [µg/mL] | MIC [14] [µg/mL] | MIC [15] [µg/mL] | MIC [16] [µg/mL] | MIC [17] [µg/mL] | MIC [18] [µg/mL] | MIC [19] [µg/mL] | MIC [20] [µg/mL] | MIC [21] [µg/mL] | MIC [22] [µg/mL] | MIC [23] [µg/mL] | MIC [24] [µg/mL] | MIC [26] [µg/mL] | MIC [27] [µg/mL] | further results
CNCC1CCN(c2c(F)cc3c(=O)c(C(=O)O)cn(C4CC4)c3c2F)C1 (stereo not drawn) [Example 8, 1-Cyclopropyl-6,8-difluoro-1,4-dihydro-7-(3-methylaminomethyl-l-pyrrolidinyl)-4-oxo-3-quinolinecarboxylic acid hydrochloride] | 0.05 | 0.05 | 0.05 | 0.025 | 0.05 | 0.025 | 0.0125 | 0.1 | 1.56 | 0.78 | 1.56 | 1.56 | 0.39 | 0.39 | 0.78 | 0.39 | 0.78 | 0.05 | 0.05 | 0.05 | MIC ([1]; Bacillus subtilis): 0.0125 µg/mL; MIC [2, 31]: 0.025 µg/mL; MIC [3, 32]: 0.025 µg/mL; MIC [4, 33]: 0.025 µg/mL; MIC [8, 34]: 0.025 µg/mL; MIC [9, 35]: 0.025 µg/mL; MIC [25]: 0.1 µg/mL; MIC [28]: 0.2 µg/mL; MIC [29]: 0.1 µg/mL; MIC [30]: 0.1 µg/mL
CCNCC1CCN(c2c(F)cc3c(=O)c(C(=O)O)cn(C4CC4)c3c2Cl)C1 (stereo not drawn) [Example 13, 8-Chloro-l-cyclorpropyl-6-fluoro-1,4-dihydro-7-(3-ethylaminomethyl-l-pyrrolidinyl)-4-oxo-3-quinolinecarboxylic acid] | 0.05 (≈ 0.123 µM) | 0.05 (≈ 0.123 µM) | 0.05 (≈ 0.123 µM) | 0.025 (≈ 0.0613 µM) | 0.05 (≈ 0.123 µM) | 0.05 (≈ 0.123 µM) | 0.025 (≈ 0.0613 µM) | 0.1 (≈ 0.245 µM) | 0.78 (≈ 1.91 µM) | 0.78 (≈ 1.91 µM) | 1.56 (≈ 3.82 µM) | 1.56 (≈ 3.82 µM) | 0.39 (≈ 0.956 µM) | 0.05 (≈ 0.123 µM) | 0.39 (≈ 0.956 µM) | 0.05 (≈ 0.123 µM) | 0.2 (≈ 0.49 µM) | 0.025 (≈ 0.0613 µM) | 0.05 (≈ 0.123 µM) | 0.05 (≈ 0.123 µM) | MIC [1, 36]: 0.0125 µg/mL (≈ 0.0306 µM); MIC [2, 31]: 0.0125 µg/mL (≈ 0.0306 µM); MIC [3, 32]: 0.025 µg/mL (≈ 0.0613 µM); MIC [4, 33]: 0.025 µg/mL (≈ 0.0613 µM); MIC [8, 34]: 0.025 µg/mL (≈ 0.0613 µM); MIC [9, 35]: 0.025 µg/mL (≈ 0.0613 µM); MIC [28]: 0.05 µg/mL (≈ 0.123 µM); MIC [29]: 0.025 µg/mL (≈ 0.0613 µM); MIC [30]: 0.05 µg/mL (≈ 0.123 µM)
NCC1CCN(c2c(F)cc3c(=O)c(C(=O)O)cn(C4CC4)c3c2Cl)C1 (stereo not drawn) [Example 14, 8-Chloro-l-cyclopropyl-6-fluoro-l,4-dihydro-7-(3-aminomethyl-l-pyrrolidinyl)-4-oxo-3-quinolinecarboxylic acid hydrochloride] | 0.05 | 0.05 | 0.025 | 0.025 | 0.025 | 0.025 | 0.0125 | 0.05 | 0.39 | 0.2 | 0.39 | 0.39 | 0.2 | 0.05 | 0.39 | 0.05 | 0.39 | 0.025 | 0.025 | 0.05 | MIC ([1]; Bacillus subtilis): 0.0125 µg/mL; MIC ([2]; Staphylococcus aureus, 209P): 0.0125 µg/mL; MIC ([3]; IID670): 0.0125 µg/mL; MIC ([4]; IID866): 0.0125 µg/mL; MIC [8]: 0.0125 µg/mL; MIC [9]: 0.0125 µg/mL; MIC [28]: 0.05 µg/mL; MIC [29]: 0.05 µg/mL; MIC [30]: 0.05 µg/mL
CNCC1CCN(c2c(F)cc3c(=O)c(C(=O)O)cn(C4CC4)c3c2Cl)C1 (stereo not drawn) [Example 12, 8-Chloro-l-cyclopropyl-6-fluoro-1,4-dihydro-7-(3-methylaminomethyl-1-pyrrolidinyl)-4-oxo-3-quinolinecarboxylic acid hydrochloride] | 0.05 | 0.05 | 0.05 | 0.025 | 0.025 | 0.05 | 0.025 | 0.05 | 0.78 | 0.39 | 0.78 | 1.56 | 0.39 | 0.1 | 0.39 | 0.1 | 0.39 | 0.05 | 0.05 | 0.05 | MIC [1, 36]: 0.0125 µg/mL; MIC [2, 31]: 0.0125 µg/mL; MIC [3, 32]: 0.025 µg/mL; MIC [4, 33]: 0.025 µg/mL; MIC [8, 34]: 0.025 µg/mL; MIC [9, 35]: 0.025 µg/mL; MIC [28]: 0.05 µg/mL; MIC [29]: 0.05 µg/mL; MIC [30]: 0.05 µg/mL
